This note sets out measurements from patent US20140357487A1, “PLANTS HAVING INCREASED TOLERANCE TO HERBICIDES” (BASF SE, priority 2011, published 2014).

The Ki is a measure of affinity in units of concentration, obtained from inhibition or displacement. Read a low Ki as higher affinity.

Common to all, as to type: biochemical
One experiment relates to Rhodococcus HPPD1. As to the kind of experiment: HPPD activity assay, Rhodococcus HPPD1. As to conditions: normalized on Arabidopsis wild-type HPPD. As for the experimental part:
(§1) HPPD produces homogentisic acid and CO2 from 4-hydroxyphenylpyruvate (4-HPP) and O2. The activity assay for HPPD is based on the analysis of homogentisic acid by reversed phase HPLC.
(§2) The assay mixture can contain 150 mM potassium phosphate buffer pH 7.0, 50 mM L-ascorbic acid, 1 μM FeSO4 and 7 μg of purified enzyme in a total volume of 1 ml.
Inhibitors are dissolved in DMSO (dimethylsulfoxide) to a concentration of 20 mM or 0.5 mM, respectively. From this stock solution serial five-fold dilutions are prepared in DMSO, which are used in the assay. The respective inhibitor solution accounts for 1% of the assay volume. […]
Activities are normalized by setting the uninhibited enzyme activity to 100%. IC50 values are calculated using non-linear regression. […]
(§3) Inhibitors are dissolved in DMSO (dimethylsulfoxide) to a concentration of 0.5 mM. […] IC50 values are calculated using non-linear regression.
Using methods which are described in the above examples or well known in the art, purified, recombinant wildtype HPPD enzymes are characterized with respect to their kinetic properties and sensitivity towards HPPD inhibiting herbicides. Apparent michaelis constants (Km) and maximal reaction velocities (Vmax) are calculated by non-linear regression with the software GraphPad Prism 5 (GraphPad Software, La Jolla, USA) using a substrate inhibition model. […]

The test system of another experiment is Rhodococcus HPPD2. As to the kind of experiment: HPPD activity assay, Rhodococcus HPPD2. As to conditions: normalized on Arabidopsis wild-type HPPD. How it is done:
as §1, §2
(§4) Inhibitors are dissolved in DMSO (dimethylsulfoxide) to a concentration of 20 mM or 0.5 mM, respectively. From this stock solution serial five-fold dilutions are prepared in DMSO, which are used in the assay. The respective inhibitor solution accounts for 1% of the assay volume. Thus, final inhibitor concentrations range from 200 μM to 2.5 nM or from 5 μM to 63 pM, respectively. After a preincubation of 30 min the reaction is started by adding 4-HPP to a final concentration of 0.1 mM. The reaction is allowed to proceed for 120 min at room temperature. The reaction is stopped by addition of 100 μl of 4.5 M phosphoric acid.
(§5) Activities are normalized by setting the uninhibited enzyme activity to 100%. IC50 values are calculated using non-linear regression.
(§6) The assay mixture can contain 150 mM potassium phosphate buffer pH 7.0, 50 mM L-ascorbic acid, 100 μM Catalase (Sigma-Aldrich), 1 μM FeSO4 and 0.2 units of purified HPPD enzyme in a total volume of 505 μl. […]
as §3
(§7) Using methods which are described in the above examples or well known in the art, purified, recombinant wildtype HPPD enzymes are characterized with respect to their kinetic properties and sensitivity towards HPPD inhibiting herbicides. Apparent michaelis constants (Km) and maximal reaction velocities (Vmax) are calculated by non-linear regression with the software GraphPad Prism 5 (GraphPad Software, La Jolla, USA) using a substrate inhibition model. […] Weighted means (by standard error) of Km and […] values are calculated from at least three independent experiments. […]

In experiment [1] the target is T1, Hordeum HPPD variant L353M, P321R, L320N (Hordeum vulgare, UniProt O48604, L320N/L353M/P321R).
T1 construct: His (N); made in house; host or cells: E. coli BL21 (DE3)
T1 sequence (O48604 whole entry R146V/R147D/R148G/A164G/L320N/P321R/L353M): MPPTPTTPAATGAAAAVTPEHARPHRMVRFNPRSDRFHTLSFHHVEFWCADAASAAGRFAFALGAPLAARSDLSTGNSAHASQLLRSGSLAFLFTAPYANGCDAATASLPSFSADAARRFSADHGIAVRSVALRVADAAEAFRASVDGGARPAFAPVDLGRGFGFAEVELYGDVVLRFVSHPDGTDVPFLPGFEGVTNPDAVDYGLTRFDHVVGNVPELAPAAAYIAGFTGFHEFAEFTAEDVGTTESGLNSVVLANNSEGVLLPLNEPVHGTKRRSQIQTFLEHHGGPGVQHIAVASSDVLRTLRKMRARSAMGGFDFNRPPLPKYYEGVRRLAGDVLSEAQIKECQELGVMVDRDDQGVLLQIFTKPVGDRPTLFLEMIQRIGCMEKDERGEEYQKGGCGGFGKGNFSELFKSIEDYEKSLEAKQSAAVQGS
As to the kind of experiment: HPPD activity assay, Hordeum HPPD mutant L353M, P321R, L320N. As to conditions: normalized on Hordeum wild-type HPPD. How it is done:
as §1, §2
(§8) Inhibitors are dissolved in DMSO (dimethylsulfoxide) to a concentration of 20 mM or 0.5 mM, respectively. From this stock solution serial five-fold dilutions are prepared in DMSO, which are used in the assay. The respective inhibitor solution accounts for 1% of the assay volume. […] After a preincubation of 30 min the reaction is started by adding 4-HPP to a final concentration of 0.1 mM. The reaction is allowed to proceed for 120 min at room temperature. The reaction is stopped by addition of 100 μl of 4.5 M phosphoric acid.
as §5
(§9) The assay mixture can contain 150 mM potassium phosphate buffer pH 7.0, 50 mM L-ascorbic acid, 100 μM Catalase (Sigma-Aldrich), 1 μM FeSO4 and 0.2 units of purified HPPD enzyme in a total volume of 505 μl. 1 unit is defined as the amount of enzyme that is required to produce 1 nmol of HGA per minute at 20° C.
(§10) Inhibitors are dissolved in DMSO (dimethylsulfoxide) to a concentration of 0.5 mM. From this stock solution serial five-fold dilutions are prepared in DMSO, which are used in the assay. The respective inhibitor solution accounts for 1% of the assay volume. […] Activities are normalized by setting the uninhibited enzyme activity to 100%. IC50 values are calculated using non-linear regression.
(§11) Purified, mutant HPPD enzymes are obtained by the methods described above. Dose response and kinetic measurements are carried out using the described HPPD activity assay. Apparent michaelis constants (Km) and maximal reaction velocities (Vmax) are calculated by non-linear regression with the software GraphPad Prism 5 (GraphPad Software, La Jolla, USA) using a substrate inhibition model.
(§12) Field performance of the optimized HPPD enzyme, which is used as a herbicide tolerance trait may depend not only on its lack of sensitivity towards HPPD inhibiting herbicides but also on its activity. To assess the potential performance of a herbicide tolerance trait a tolerance index (TI) is calculated using the following formula: […]
(§13) Easy comparison and ranking of each trait is enabled by normalizing tolerance indexes on Arabidopsis or Hordeum wild-type HPPD.

The target of experiment [2] is T2, Hordeum HPPD variant L320N (Hordeum vulgare, UniProt O48604, A164G/L320N/R146V/R147D/R148G).
T2 construct: His (N); made in house; host or cells: E. coli BL21 (DE3)
T2 sequence (O48604 whole entry R146V/R147D/R148G/A164G/L320N): as the sequence (O48604 whole entry R146V/R147D/R148G/A164G/L320N/P321R/L353M) above, with R321P, M353L counted along it
In words: HPPD activity assay, Hordeum HPPD mutant L320N. As to conditions: normalized on Hordeum wild-type HPPD. How it is done: as §1, §2, §8, §5, §9, §10, §11, §12, §13

Experiment [3] concerns the target T3, Hordeum HPPD variant L320Q (Hordeum vulgare, UniProt O48604, A164G/L320Q/R146V/R147D/R148G).
T3 construct: His (N); made in house; host or cells: E. coli BL21 (DE3)
As to the kind of experiment: HPPD activity assay, Hordeum HPPD mutant L320Q. The settings on record: normalized on Hordeum wild-type HPPD. As for the experimental part: as §1, §2, §8, §5, §9, §10, §11, §12, §13

For another experiment, the target named is T4, Hordeum HPPD (SEQ ID: 2) (Hordeum vulgare, UniProt O48604, A164G/R146V/R147D/R148G).
T4 construct: His (N); made in house; host or cells: E. coli BL21 (DE3)
T4 sequence (O48604 whole entry R146V/R147D/R148G/A164G): as the sequence (O48604 whole entry R146V/R147D/R148G/A164G/L320N/P321R/L353M) above, with N320L, R321P, M353L counted along it
As to the kind of experiment: HPPD activity assay, Hordeum wild-type HPPD. The settings on record: for tolerance index TI: not normalized. As for the experimental part: as §1, §2, §8, §5, §9, §10
Using methods which are described in the above examples or well known in the art, purified, recombinant wildtype HPPD enzymes are characterized with respect to their kinetic properties and sensitivity towards HPPD inhibiting herbicides. Apparent michaelis constants (Km) and maximal reaction velocities (Vmax) are calculated by non-linear regression with the software GraphPad Prism 5 (GraphPad Software, La Jolla, USA) using a substrate inhibition model.
Field performance of the HPPD enzyme, which is used as a herbicide tolerance trait, may depend not only on its lack of sensitivity towards HPPD inhibiting herbicides but also on its activity. To assess the potential performance of a herbicide tolerance trait a tolerance index (TI) is calculated using the following formula: […]

For experiment [4], the target named is T5, Hordeum HPPD variant V212L (Hordeum vulgare, UniProt O48604, A164G/R146V/R147D/R148G/V212L).
T5 construct: His (N); made in house; host or cells: E. coli BL21 (DE3)
T5 sequence (O48604 whole entry R146V/R147D/R148G/A164G/V212L): as the sequence (O48604 whole entry R146V/R147D/R148G/A164G/L320N/P321R/L353M) above, with V212L, N320L, R321P, M353L counted along it
In words: HPPD activity assay, Hordeum HPPD mutant V212L. The settings on record: normalized on Hordeum wild-type HPPD. As for the experimental part:
as §1, §2, §8, §5, §9, §10, §11, §12, §13

For the next experiment, the system named is Alopecurus HPPD. As to the kind of experiment: HPPD activity assay, Alopecurus HPPD. The settings on record: normalized on Arabidopsis wild-type HPPD. As for the experimental part:
as §1, §2, §4, §5, §6, §3, §7

For experiment [5], the target named is T6, Hordeum HPPD variant L353M, P321R, V212I (Hordeum vulgare, UniProt O48604, L353M/P321R/V212I).
T6 construct: His (N); made in house; host or cells: E. coli BL21 (DE3)
T6 sequence (O48604 whole entry R146V/R147D/R148G/A164G/V212I/P321R/L353M): as the sequence (O48604 whole entry R146V/R147D/R148G/A164G/L320N/P321R/L353M) above, with V212I, N320L counted along it
In words: HPPD activity assay, Hordeum HPPD mutant L353M, P321R, V212I. The settings on record: normalized on Hordeum wild-type HPPD. As for the experimental part: as §1, §2, §8, §5, §9, §10, §11, §12, §13

[6] abbreviates: Hordeum HPPD Wildtype, normalized on Hordeum wild-type HPPD.
[7] abbreviates: Hordeum HPPD, normalized on Arabidopsis wild-type HPPD.

T3 sequence (O48604 whole entry R146V/R147D/R148G/A164G/L320Q): as the sequence (O48604 whole entry R146V/R147D/R148G/A164G/L320N/P321R/L353M) above, with N320Q, R321P, M353L counted along it

Take `CC1=NOC(c2c(Cl)ccc(C3=C(O)c4ncccc4C(C)(C)S3(=O)=O)c2Cl)C1` (centres unmarked) [Inhibitor 1, 7-[2,4-dichloro-3-(3-methyl-4,5-dihydroisoxazol-5-yl)phenyl]-5,5-dimethyl-6,6-dioxo-thiopyrano[4,3-b]pyridin-8-ol]: the “Normalized tolerance index TI” value with Rhodococcus HPPD1 was found to be 39; in the experiment on Rhodococcus HPPD2, 73; in experiment [1], 2.1; in experiment [2], 2; in experiment [3], 2.1; on Hordeum HPPD (SEQ ID: 2) (setting [6]) it was 1. For the same molecule, the “Normalized tolerance index TI” value at Hordeum HPPD (SEQ ID: 2) (setting [7]) worked out at 0.7; in experiment [4], 0.8; in the experiment with Alopecurus HPPD it was 2.5; in experiment [5] it was 2.2. On Hordeum HPPD (SEQ ID: 2), this molecule returned a Ki of 6.6 nM. For the same molecule, the “tolerance index TI” value at Hordeum HPPD (SEQ ID: 2) (Hordeum HPPD) is 2.9E−3.

As for `CC1(C)c2cccnc2C(O)=C(c2ccc(Cl)nc2Cl)S1(=O)=O` [Inhibitor 2, 7-(2,6-dichloro-3-pyridyl)-5,5-dimethyl-6,6-dioxo-thiopyrano[4,3-b]pyridin-8-ol], the “Normalized tolerance index TI” value in the experiment with Rhodococcus HPPD2 is given as 11.4; in [1], 1.4; in experiment [2], 1.7; in experiment [3], 0.7; at Hordeum HPPD (SEQ ID: 2) (setting [6]), 1; at Hordeum HPPD (SEQ ID: 2) (setting [7]), 0.5. Moreover, the “Normalized tolerance index TI” value came to 1.1 in experiment [4], 1.4 with Alopecurus HPPD and 1.5 in experiment [5]. On Hordeum HPPD (SEQ ID: 2), the Ki was determined as 4.9 nM. Moreover, the “tolerance index TI” value on Hordeum HPPD (SEQ ID: 2) (Hordeum HPPD) is 2.2E−3.

For the molecule `COCCOCc1c(Cl)ccc(C2=C(O)c3ncccc3C(C)(C)S2(=O)=O)c1Cl` [Inhibitor 3, 7-[2,4-dichloro-3-(2-methoxyethoxymethyl)phenyl]-5,5-dimethyl-6,6-dioxo-thiopyrano[4,3-b]pyridin-8-ol], the “Normalized tolerance index TI” value stood at 1.6 with Rhodococcus HPPD1; 2.1 in the experiment on Rhodococcus HPPD2; 1.9 in experiment [1]; 1.9 in experiment [2]; 2.4 in experiment [3]; 1 at Hordeum HPPD (SEQ ID: 2) (setting [6]). The results for the “Normalized tolerance index TI” value (at Hordeum HPPD (SEQ ID: 2) (setting [7]); in [4]; in [5]) were 0, 0.7 and 1.9, respectively.
